# What was measured:
# U-937 = experiment: 48-hour IC50 by MTS, U-937 lymphoma cells; assay type: cell-based, human
# Procedure: (§1) Cells were grown in media supplemented with fetal bovine serum (FBS) and antibiotics (100 μg/mL penicillin and 100 U/mL streptomycin). […] Cells were incubated at 37° C. in a 5% CO2, 95% humidity atmosphere.
# (§2) In a 96-well plate, compounds were pre-added as DMSO stocks (1% final) in triplicate to achieve final concentrations of 1 nM to 10 μM on a half log scale. DMSO and cell-free wells served as the live and dead control, respectively. […] IC50 values were determined from three or more independent experiments using TableCurve (San Jose, Calif.).
# HeLa = experiment: 48-hour IC50 by SRB, HeLa cervical carcinoma cells; assay type: cell-based, human
# Procedure: as §1
# (§3) Adherent cells (HeLa, A549, BT549, and IMR90) were added into 96-well plates (5,000 cells/well for HeLa cell line; 2,000 cells/well for A549, BT549, and IMR90 cell lines) in 100 μL media and were allowed to adhere for 2-3 hours. Compounds were solubilized in DMSO as 100× stocks, added directly to the cells (100 μL final volume), and tested over a range of concentrations (1 nM to 10 μM) in triplicate (1% DMSO final) on a half-log scale. DMSO and cell-free wells served as the live and dead control, respectively. […] Briefly, media was removed from the plate, and cells were fixed by the addition of 100 μL cold 10% trichloroacetic acid in water. After incubating at 4° C. for 1 h, the plates were washed in water and allowed to dry. Sulforhordamine B was added as a 0.057% solution in 1% acetic acid (100 μL), and the plates were incubated at room temperature for 30 min, washed in 1% acetic acid, and allowed to dry. […] IC50 values were determined from three or more independent experiments using TableCurve (San Jose, Calif.).
# A549 = experiment: 48-hour IC50 by SRB, A549 non-small cell lung carcinoma cells; assay type: cell-based, human
# Procedure: as §1, §3
# BT549 = experiment: 48-hour IC50 by SRB, BT549 breast carcinoma cells; assay type: cell-based, human
# Procedure: as §1, §3
# IMR90 = experiment: 48-hour IC50 by SRB, IMR90  lung fibroblasts; assay type: cell-based, human; conditions: IMR90 immortalized lung fibroblasts
# Procedure: as §1, §3
# CEM = experiment: 48-hour IC50 by MTS, CEM acute lymphoblastic leukemia cells; assay type: cell-based, human
# Procedure: as §1, §2
# Daudi = experiment: 48-hour IC50 by MTS, Daudi Burkitt's lymphoma cells; assay type: cell-based, human
# Procedure: as §1, §2
# HL-60 = experiment: 48-hour IC50 by MTS, HL-60 acute promyelocytic leukemia cells; assay type: cell-based, human
# Procedure: as §1, §2
# CA46 = experiment: 48-hour IC50 by MTS, CA46 Burkitt's lymphoma cells; assay type: cell-based, human
# Procedure: as §1, §2
# [1] = tested on: procaspase-3 and PARP-1 cleavage; experiment: Western blot analysis of procaspase-3 and PARP-1 cleavage in U-937 cells; assay type: cell-based, human; conditions: 24 hours
# Procedure: FIG. 2. […] Western blot analysis of procaspase-3 and PARP-1 cleavage at 24 hours in U-937 cells using β-actin as loading control. Compounds were tested at indicated concentrations and STS (10 nM); C3=caspase-3; PARP=poly(ADP-ribose) polymerase 1; PC3=procaspase-3; STS=staurosporine.
# U-937 cells = experiment: Apoptosis in U-937 cells with Annexin V-FITC and propidium iodide; assay type: cell-based, human; conditions: 21 hours, flow cytometry
# Procedure: FIG. 3. […] Analysis of phosphatidylserine exposure and propidium iodide inclusion at 21 hours in U-937 cells. Compounds were tested at indicated concentrations and STS was used as a positive control for apoptosis. Samples were analyzed by flow cytometry for the relative timing of phosphatidylserine exposure relative to PI inclusion. FITC=fluorescein isothiocyanate; PI=propidium iodide; STS=staurosporine.
# DMSO stocks of compounds were added to a 24-well plate in singlicate (0.2% DMSO final). […] Following treatment, the cell suspensions were transferred to flow cytometry tubes and pelleted (500 g, 3 min). The media was removed by aspiration, and cells were resuspended in 200 μL AnnV binding buffer (10 mM HEPES, pH 7.4, 140 mM NaCl, 2.5 mM CaCl2) with 5 μg/mL PI and 1:90 dilution of AnnV. Samples were analyzed using flow cytometry.
# blood cancer cells = experiment: Activity against human blood cancer cell lines; assay type: cell-based
# Procedure: Based on the surprising and exceptional potency of (−)-agelastatins A (1) and D (4) against U-937 cells relative to the other cell lines tested, five additional blood cancer cell lines were tested for their sensitivity to the agelastatin alkaloids. These cell lines spanned a variety of cancer types (CEM, acute lymphoblastic leukemia; Jurkat, acute T-cell leukemia; Daudi, Burkitt's lymphoma; HL-60, acute promyelocytic leukemia; CA46, Burkitt's lymphoma). After a 48-hour incubation, the ability of (−)-agelastatins A-F (1-6) to induce cell death was evaluated. […] The same trends in potency observed for the various agelastatins with the general cell panel (Table 3) were also observed.
# In a 96-well plate, compounds were pre-added as DMSO stocks (1% final) in triplicate to achieve final concentrations of 1 nM to 10 μM on a half log scale. DMSO and cell-free wells served as the live and dead control, respectively. […] After 48 h, cell viability was assessed by adding 20 μL of a PMS/MTS solution (A. H. Cory, T. C. Owen, J. A. Barltrop, J. G. Cory, Cancer Commun., 1991, 3, 207) to each well, allowing the dye to develop at 37° C. until the live control had processed MTS, and reading the absorbance at λ=490 nm. IC50 values were determined from three or more independent experiments using TableCurve (San Jose, Calif.).
smiles,measurement,setting,value
"CN1C(=O)N[C@H]2[C@@H]3NC(=O)c4ccc(Br)n4[C@@H]3C[C@]21O [(−)-1, (−)-agelastatin A]",IC50,U-937,0.067 ± 0.003 µM
same,IC50,HeLa,0.708 ± 0.09 µM
same,IC50,A549,1.05 ± 0.14 µM
same,IC50,BT549,0.278 ± 0.076 µM
same,IC50,IMR90,1.11 ± 0.35 µM
same,IC50,CEM,0.02 ± 0.002 µM
same,IC50,Daudi,0.02 ± 0.003 µM
same,IC50,HL-60,0.138 ± 0.066 µM
same,IC50,CA46,0.187 ± 0.071 µM
same,activation of procaspase-3 to active caspase-3 and cleavage of PARP-1,[1],dose-dependent activation
same,apoptosis (phosphatidylserine exposure and propidium iodide inclusion),U-937 cells,induced dose-dependent apoptosis
same,"sensitivity of five additional blood cancer cell lines, in words","blood cancer cells; CEM, Jurkat, Daudi, HL-60, CA46, 48-hour incubation",remarkable sensitivity
same,IC50,"blood cancer cells; range over blood cancer cell lines, read-out: potency against blood cancer cells",0.02 to 0.19 µM
